Results as given in US7196110B2, “N-substituted tricyclic 3-aminopyrazoles as inhibitors for the treatment of cell proliferative disorders” (Janssen Phamaceutica N.V., priority 2002, dated 2007).

Legend:
[1] = tested on: PDGF-BB-stimulated angiogenesis; test: Anti-angiogenesis matrigel mouse model (MM assay) supplemented with PDGF-BB, plug hemoglobin content; assay type: in vivo, mice (C57BL/6J); settings: mice
Description: Angiogenesis inhibitory activity of a compound of this invention can be measured in vivo using the matrigel mouse model (MM Assay) of angiogenesis (Passaniti et al., Laboratory Investigation, 67: 519–528, 1992). The matrigel mouse assay is a well-established method to quantify angiogenesis (see e g. Capogrossi et al., Methods in Molecular Medicine, Vascular Disease: Molecular Biology and Gene Therapy Protocols, Edited by: A. H. Baker, Humana Press Inc., Totowa, N.J., 1999). The model has been characterized extensively for its relevance as a mimic of the process of angiogenesis and has been used extensively to evaluate in vivo both potential angiogenic and anti-angiogenic activity of numerous compounds/agents. […] All procedures involving animals were conducted in an animal facility fully accredited by the American Association for Assessment and Accreditation of Laboratory Animal Care (AAALAC) and in accordance with The Guide for the Care and Use of Laboratory Animals (NIH). […]
Normal male mice (C57BL/6J) were injected subcutaneously (ventrally below rib cage at abdominal midline) with 1.0 mL of chilled matrigel supplemented with a single purified pro-angiogenic growth factor (100–500 ng/mL of either rhPDGF-BB (supra), recombinant human basic fibroblast growth factor, rhFGF-basic (R&D System Cat. No 233-FB) or recombinant human vascular endothelial growth factor, rhVEGF (PanVera Cat. No R2951) and heparin (35 U/mL). Compounds are formulated as 0.1% suspensions (1 mg/mL final concentration) in 0.5% methylcellulose. Vehicle or test compounds (8–10 mice per treatment group) were administered orally by gavage beginning two hours after matrigel injections. […] Supernatants were removed and the hemoglobin concentration in the plug extract was measured spectrophotometrically using the Drabkin's assay method (Drabkin's reagent kit 525-A; SIGMA) and read on a Beckman DU 7400 Spectrophotometer. […] Group differences were analyzed statistically using the Mann-Whitney Test, with a p-value of 0.05 or less considered statistically significant. […]

H460 = test: Flow cytometry and trypan blue exclusion cell counting, H460; assay type: cell-based, human
[2] = tested on: MDAH2774 (ovarian cancer); test: Clonogenicity assay, compound in combination with irradiation, MDAH2774; assay type: cell-based, human
Protocol: Radiotherapy is a major therapeutic modality in treating many types of cancers including human prostate and ovarian cancers. The anti-proliferative activity of compounds within the scope of the invention was tested in combination with irradiation treatment.
Cells DU145 (prostate cancer) and MDAH2774 (ovarian cancer) were obtained from ATCC; growth media MEM medium (Mediatech, Herndon, Va.) was supplemented with 8% FBS, 5 U/ml penicillin and 50 μg/ml Streptomycin (Hyclone, Logan, Utah), 2 mM L-glutamine (Hyclone, Logan, Utah), 25 mM HEPES (Hyclone, Logan, Utah); McCoy's 5A medium (Mediatech, Herndon, Va.) was supplemented with 8% FBS, 50 U/ml penicillin and 50 μg/ml-Strep (Hyclone, Logan, Utah) and Glutamine 2 mM L-glutamine (Hyclone, Logan, Utah), ^137CS γ-source was a Gammacell 1000 Elite irradiator (MDS Nordion, Kanata, Ontario, Canada); DMSO; 1× PBS; Methanol; 0.25% Crystal Violet, and 60 mm tissue culture dishes.
DU145 or MDAH2774 cells at desired cell number were plated in early log phase on 60 mm dishes in MEM medium supplemented with 8% FBS, Penicillin, Streptomycin, L-glutamine, or McCoys medium supplemented with 8% FBS, Penicillin, Streptomycin and Glutamine, respectively. Cells were plated in triplicate. […] The final concentrations of the compound in the cell media ranged from 1 to 100 nM. After 24 h incubation with the test compound plates were split in two groups of equal size. The plates in the first group were irradiated with 7.3 Gy (plates containing DU145 cells) or 5.4 Gy (plates containing MDAH2774 cells) using a ^137Cs γ-source (dose rate 3.32 Gy/min). The second group of plates were treated identically but not irradiated. Cells were incubated for an additional 24 hours in medium containing test compound. Then, the cells were replenished with fresh compound-free identical medium and allowed to grow for an additional 11 days. Cells were then fixed with methanol, stained with 0.25% crystal violet, and the clones containing more than 50 cells were counted.
The activity appeared to be concentration-dependent with more dramatic effects achieved at 100 nM compound with radiation in either cell line.

[3] = Rat pharmacokinetics study of pro-drugs, conversion to parent monitored by HPLC/MS/MS; assay type: in vivo; settings: po, rat plasma, 10 mg/kg orally, read-out: Fast PK (0.5 h) conc. Prodrug
Protocol: Furthermore, pro-drugs have been administered orally to rats (10 mg/kg) in pharmacokinetics studies, and the conversion of pro-drugs to the parent compound was montitored by HPLC/MS/MS analyses. Parent compound or the glucuronide conjugates of the parent compound was detected in the rat plasma from the pharmacokinetics studies (Table G).

Structure (SMILES)	% Inhibition @ 30 mg/kg po (angiogenesis, MM assay supplemented with PDGF-BB) [1] [%]	cell cycle / growth effect in H460 cells (H460)	colony formation inhibition with versus without radiation, MDAH2774 ([2]; 5.4 Gy, compound 1 to 100 nM)	concentration from which marked inhibitory activity against colony formation was shown, MDAH2774 ([2]; in the presence or absence of radiation (5.4 Gy)) [nM]	No. of MDAH2774 Clones (average of three plates) ([2]; w/Radiation (5.4 Gy), 1000 cells initially plated, compound 1 nM)	No. of MDAH2774 Clones (average of three plates) ([2]; w/Radiation (5.4 Gy), 1000 cells initially plated, compound 3 nM)	No. of MDAH2774 Clones (average of three plates) ([2]; w/Radiation (5.4 Gy), 1000 cells initially plated, compound 10 nM)	No. of MDAH2774 Clones (average of three plates) ([2]; w/Radiation (5.4 Gy), 1000 cells initially plated, compound 30 nM)	No. of MDAH2774 Clones (average of three plates) ([2]; w/Radiation (5.4 Gy), 1000 cells initially plated, compound 100 nM)	No. of MDAH2774 Clones (average of three plates) ([2]; w/o Radiation, 200 cells initially plated, compound 1 nM)	No. of MDAH2774 Clones (average of three plates) ([2]; w/o Radiation, 200 cells initially plated, compound 3 nM)	No. of MDAH2774 Clones (average of three plates) ([2]; w/o Radiation, 200 cells initially plated, compound 10 nM)	No. of MDAH2774 Clones (average of three plates) ([2]; w/o Radiation, 200 cells initially plated, compound 30 nM)	No. of MDAH2774 Clones (average of three plates) ([2]; w/o Radiation, 200 cells initially plated, compound 100 nM)	concentration at 0.5 h [3] [nM]
COc1cc2c(cc1OC)-c1n[nH]c(Nc3ccccc3F)c1C2 [Compound 12, (6,7-Dimethoxy-2,4-dihydro-indeno[1,2-c]pyrazol-3-yl)-(2-fluoro-phenyl)-amine]	45	–	–	–	–	–	–	–	–	–	–	–	–	–	–
COc1cc2c(cc1OC)-c1n[nH]c(Nc3cccc(F)c3)c1C2 [Compound 14, (3-Fluoro-phenyl)-(6,7-dimethoxy-2,4-dihydro-indeno[1,2-c]pyrazol-3-yl)-amine]	40	blocked growth	the inhibitory effect was greater with radiation	≥ 30	121	125	121	8	3	98	96	110	35	8	–
COc1cc2c(cc1OC)-c1c(c(Nc3cccc(F)c3)nn1C(=O)CO)C2 [Compound 432, 1-[3-(3-Fluoro-phenylamino)-6,7-dimethoxy-4H-indeno[1,2-c]pyrazol-1-yl]-2-hydroxy-ethanone]	–	–	–	–	–	–	–	–	–	–	–	–	–	–	80
